Consider one compound from US20210145830A1, “MATERIALS AND METHODS FOR TREATING CANCER” (Mayo Foundation for Medical Education and Research, priority 2018, published 2021).

Assay [1] has as its system CART19. Kind of assay: T cell degranulation and intracellular cytokine assays. Type of assay: cell-based. On the procedure: FIG. 22A-C. In vitro experiment for the combination of CART19 and TP0903. A. CART19 were cocultured at different effector-to-target ratio (E:T) with luciferase-positive JeKo-1. At 48 hours, cell killing was assessed by luminescence. […] The means and SEM are shown (**, p<0.005, *, p<0.05, one-way ANOVA analysis). n.s., not statistically significant. B. CART19 degranulation assay and cytokine production in the presence of TP0903. CART19 were cocultured with JeKo-1 for 4 hours in the presence of TP0903 doses of TP0903 (10-65 nM). […] C. Th2/Th1 T cell subtype analysis during CART19 expansion in the presence pf TP0903. CART19 cells were stimulated with lethally irradiated (120 Gy) JeKo-1 cell lines in the presence of increasing doses of TP0903 (10-30 nM). At the day 3, Th1 and Th2 cells were defined using CD4, CCR6, CCR4 and CXCR3 expression. […] The means and SEM are shown (*, p<0.05, one-way ANOVA analysis). n.s., not statistically significant.
Briefly, T cells were incubated with target cells at a 1:5 ratio. After staining for CAR expression, antibodies against CD107a, CD28, CD49d and monensin were added at the time of incubation. After 4 hours, cells were harvested and stained for CD3, CD4, and Live Dead staining (Invitrogen). Cells were fixed and permeabilized (FIX & PERM Cell Fixation & Cell Permeabilization Kit, Life Technologies) and intracellular cytokine staining was then performed as indicated in the specific experiments.
T cells were incubated with target cells at a 1:5 ratio (experiments were done using JEKO cells as well as primary B cells). Antibodies against CD107a, CD28, CD49d and monensin were added at the time of incubation.
After 4 hours, cells were harvested and stained for CD3, CD4, and Live Dead staining (Invitrogen). Cells were fixed and permeabilized (FIX & PERM Cell Fixation & Cell Permeabilization Kit, Life Technologies), and intracellular cytokine staining was then performed. […] The number of CD4 and CD8 cells positively stained for cluster of differentiation 107a (CD107a) or granulocyte-macrophage colony-stimulating factor (GM-CSF) in degranulation assays were shown in FIG. 5. The number of CD4 cells positively stained for interleukin-2 (IL-2) or interleukin-4 (IL-4) in degranulation assays were shown in FIG. 6.

Assay [2] deals with CART cells. Nature of the assay: In vitro CART19 exhaustion assay. The class given is cell-based. On the procedure:
FIG. 11 contains an exemplary timeline for an in vitro CART19 exhaustion assay in the presence of TP0903. T cells were incubated with target cells at a 1:5 ratio (experiments were done using JEKO cells as well as primary B cells). The low E:T ratio was used to induce a state of dysfunction of CART cells. Cells were cultured in the presence of increasing doses of TP0903. On day 5 of co-culture, cells were harvested, and expression of inhibitory receptors was analyzed. Co-culture in the presence of TP0903 reduces expression of PD1, TIM3, and LAG3 inhibitory receptors.
T cells were incubated with target cells at a 1:5 ratio (experiments were done using JEKO cells as well as primary B cells). The low E:T ratio was used to induce a state of dysfunction of CART cells. Cells were cultured in the presence of increasing doses of TP0903. On day 5 of co-culture, cells were harvested, and expression of inhibitory receptors was analyzed. Co-culture in the presence of TP0903 reduced expression of PD1, TIM3, and LAG3 inhibitory receptors. TP0903 reduced exhaustion receptors on CART cells (FIG. 12).

The mark [3] stands for this setting: T cells:targets 1:5, JEKO or primary B cells, 4 hours.

Each structure is given as a SMILES string. “Also recorded” adds a separate entry of the source.

`CN1CCN(Cc2ccc(Nc3ncc(Cl)c(Nc4ccccc4S(=O)(=O)N(C)C)n3)cc2)CC1` [TP0903]: in assay [1] (CD4 and CD8 cells), the “T cell specific degranulation or intracellular cytokines (CD107a, GM-CSF)” value was “did not inhibit”. Besides, the “activation of CART19 cells (CD107a degranulation, intracytoplasmic IL-2, IFN-γ, GM-CSF)” value in assay [1] (JeKo-1, 4 hours, TP0903 10-65 nM, presence or absence of TP0903) was “significant activation”. The “secretion of IL-4” value in assay [1] (JeKo-1, 4 hours, increasing dose of TP0903 (10-65 nM)) is given as “downregulated”. In addition, in assay [1] (setting [3]), the CART cell functions result was “did not impair” and the “Th2 cytokines (intracellular staining)” value is given as “lowered”. Besides, in assay [2] (1:5 E:T, JEKO or primary B cells, increasing doses of TP0903, day 5), the “expression of PD1, TIM3, and LAG3 inhibitory (exhaustion) receptors on CART cells” value is “reduces; also recorded: downregulated in a dose depended manner”. In addition, the “inhibitory receptors on activated CART cells” value in assay [2] (CART19 with Jeko, Example 2) is “significantly downregulated”.
